What all share (assay type): functional
For test [1], the system named is Streptococcus pneumoniae. Nature of the test: Antibacterial activity against erythromycin-resistant Streptococcus pneumoniae isolates assessed as percent resistant isolates by broth microdilution method. (In general: In broth dilution the organism is exposed to a series of concentrations in liquid medium.)
In test [2] the test system is Streptococcus pneumoniae. Nature of the test: Antibacterial activity against erythromycin-resistant Streptococcus pneumoniae isolates assessed as percent susceptible isolates by broth microdilution method.
Test [3] deals with Streptococcus pneumoniae. Description: Antibacterial activity against erythromycin-resistant Streptococcus pneumoniae isolates by broth microdilution method.
Test [4] relates to Streptococcus pneumoniae. Description: Antibacterial activity against erythromycin-resistant Streptococcus pneumoniae isolate-3 with ParC Ser79Tyr and parE Ile460Val mutation by broth microdilution method.
Test [5] concerns Streptococcus pneumoniae. Description: Antibacterial activity against erythromycin-resistant Streptococcus pneumoniae isolate-7 with parE Ile460Val mutation by broth microdilution method.
The test system of test [6] is Streptococcus pneumoniae. Description: Antibacterial activity against erythromycin-resistant Streptococcus pneumoniae isolate-6 with parE Ile460Val mutation by broth microdilution method.
Test [7] relates to Streptococcus pneumoniae. Description: Antibacterial activity against erythromycin-resistant Streptococcus pneumoniae isolate-8 with parE Ile460Val mutation by broth microdilution method.
Test [8] concerns Streptococcus pneumoniae. Description: Antibacterial activity against erythromycin-resistant Streptococcus pneumoniae isolate-2 with gyrA Ser81Phe, Ser114Gly, ParC Ser52Gly, Ser79Phe, Asn91Asp and parE Ile460Val mutation by broth microdilution method.
Test [9] concerns Streptococcus pneumoniae. Description: Antibacterial activity against erythromycin-resistant Streptococcus pneumoniae isolate-5 with ParC Ser79Tyr, Lys137Asn and parE Ile460Val mutation by broth microdilution method.
In test [10] the test system is Streptococcus pneumoniae. Nature of the test: Antibacterial activity against erythromycin-resistant Streptococcus pneumoniae isolate-9 with parC Asn94ser and parE Ile460Val mutation by broth microdilution method.
The subject of test [11] is Streptococcus pneumoniae. Description: Antibacterial activity against erythromycin-resistant Streptococcus pneumoniae isolate-1 with gyrA Glu85Lys, ParC Ser79Phe and parE Ile460Val mutation by broth microdilution method.
Test [12] relates to Streptococcus pneumoniae. Description: Antibacterial activity against erythromycin-resistant Streptococcus pneumoniae isolate-4 with gyrA Ser81Phe, ParC Lys137Asn and parE Ile460Val, Asp435Asn mutation by broth microdilution method.

SMILES strings stand for the structures. Values after ≈ are worked out from the molar mass of the structure shown.

The MIC50 is an inhibitory concentration at the 50% level, which refers to growth in some studies and to a panel of isolates in others. Low values mean higher susceptibility, high ones lower susceptibility. One may read the MIC90 as the lowest concentration that inhibits either 90% of growth or 90% of the strains tested, depending on the study. Take `CC1(C)S[C@@H]2[C@H](NC(=O)[C@H](N)c3ccc(O)cc3)C(=O)N2[C@H]1C(=O)O` [AMOXICILLIN]: the Activity with Streptococcus pneumoniae [1] is reported as 33.2%. Further, in the test on Streptococcus pneumoniae [2], the Percent susceptible isolates turned out to be 40.9%. Further, in the test with Streptococcus pneumoniae [3], the MIC50 was 4 µg/mL (≈ 10.9 µM) and the MIC90 was 16 µg/mL (≈ 43.8 µM).

For `CO/N=C(\C(=O)N[C@@H]1C(=O)N2C(C(=O)O)=C(COC(C)=O)CS[C@H]12)c1csc(N)n1` [CEFOTAXIME], the Activity in the test on Streptococcus pneumoniae [1] is reported as 3.4%. Besides, in the test on Streptococcus pneumoniae [2], the Percent susceptible isolates was 78.7%. In the test with Streptococcus pneumoniae [3], this molecule had an MIC50 of 1 µg/mL (≈ 2.2 µM) and an MIC90 of 2 µg/mL (≈ 4.39 µM).

On to `CO/N=C(\C(=O)N[C@@H]1C(=O)N2C(C(=O)O)=C(CSc3nc(=O)c(O)nn3C)CS[C@H]12)c1csc(N)n1` [CEFTRIAXONE], for which the Activity with Streptococcus pneumoniae [1] came to 3.4%. Besides, the Percent susceptible isolates in the test on Streptococcus pneumoniae [2] came to 76.2%. In the test with Streptococcus pneumoniae [3], this molecule displayed an MIC50 of 1 µg/mL (≈ 1.8 µM) and an MIC90 of 2 µg/mL (≈ 3.61 µM).

For the molecule `COc1c(N2C[C@@H]3CCCN[C@@H]3C2)c(F)cc2c(=O)c(C(=O)O)cn(C3CC3)c12` [MOXIFLOXACIN], the Activity in the test on Streptococcus pneumoniae [1] was found to be 1.7%. In addition, the Percent susceptible isolates in the test with Streptococcus pneumoniae [2] is given as 97.9%.

Usually MIC stands for the lowest concentration found to suppress growth. Consider `C[C@H]1COc2c(N3CCN(C)CC3)c(F)cc3c(=O)c(C(=O)O)cn1c23.C[C@H]1COc2c(N3CCN(C)CC3)c(F)cc3c(=O)c(C(=O)O)cn1c23.O` [LEVOFLOXACIN], for which the MIC in the test with Streptococcus pneumoniae [4] is 0.064 µg/mL; in the test on Streptococcus pneumoniae [5] it was 0.064 µg/mL; in the test on Streptococcus pneumoniae [6], 8 ng/mL; against Streptococcus pneumoniae [7], 0.064 µg/mL; with Streptococcus pneumoniae [8], 8 ng/mL; with Streptococcus pneumoniae [9], 4 ng/mL. Also, the MIC against Streptococcus pneumoniae [10] is 4 ng/mL; against Streptococcus pneumoniae [11], 0.032 µg/mL; in the test with Streptococcus pneumoniae [12], 8 ng/mL. Also, in the test on Streptococcus pneumoniae [1], the Activity was determined as 3%. In addition, the Percent susceptible isolates in the test with Streptococcus pneumoniae [2] came out at 96.2%. The MIC50 in the test on Streptococcus pneumoniae [3] stood at 1 µg/mL. In the test with Streptococcus pneumoniae [3], this molecule returned an MIC90 of 2 µg/mL.

In the case of `CC[C@H]1OC(=O)[C@H](C)[C@@H](O[C@H]2C[C@@](C)(OC)[C@@H](O)[C@H](C)O2)[C@H](C)[C@@H](O[C@@H]2O[C@H](C)C[C@H](N(C)C)[C@H]2O)[C@](C)(O)C[C@@H](C)C(=O)[C@H](C)[C@@H](O)[C@]1(C)O` [ERYTHROMYCIN], the Activity with Streptococcus pneumoniae [1] turned out to be 80%. The Percent susceptible isolates with Streptococcus pneumoniae [2] worked out at 20%. In addition, in the test with Streptococcus pneumoniae [3], the MIC50 came out at 4 µg/mL (≈ 5.45 µM) and the MIC90 is not below 128 µg/mL.

For `CC(=O)NC[C@H]1CN(c2ccc(N3CCOCC3)c(F)c2)C(=O)O1` [LINEZOLID], the Activity with Streptococcus pneumoniae [1] is 0%. For the same molecule, the Percent susceptible isolates in the test with Streptococcus pneumoniae [2] is 100%. Moreover, in the test with Streptococcus pneumoniae [3], the MIC50 was 0.5 µg/mL (≈ 1.48 µM) and the MIC90 came out at 1 µg/mL (≈ 2.96 µM).

With `CN[C@H](CC(C)C)C(=O)N[C@H]1C(=O)N[C@@H](CC(N)=O)C(=O)N[C@H]2C(=O)N[C@H]3C(=O)N[C@H](C(=O)N[C@H](C(=O)O)c4cc(O)cc(O)c4-c4cc3ccc4O)[C@H](O)c3ccc(c(Cl)c3)Oc3cc2cc(c3O[C@@H]2O[C@H](CO)[C@@H](O)[C@H](O)[C@H]2O[C@H]2C[C@](C)(N)[C@H](O)[C@H](C)O2)Oc2ccc(cc2Cl)[C@H]1O` [VANCOMYCIN], the Activity in the test with Streptococcus pneumoniae [1] is recorded as 0%. Also, the Percent susceptible isolates in the test with Streptococcus pneumoniae [2] came to 100%. In addition, in the test on Streptococcus pneumoniae [3], the MIC50 was found to be 0.25 µg/mL (≈ 0.173 µM) and the MIC90 was determined as 0.25 µg/mL (≈ 0.173 µM).

Turning to `CN(C)[C@@H]1C(O)=C(C(N)=O)C(=O)[C@@]2(O)C(O)=C3C(=O)c4c(O)cccc4[C@@](C)(O)[C@H]3C[C@@H]12` [TETRACYCLINE], the Activity in the test with Streptococcus pneumoniae [1] is 81.3%. In addition, the Percent susceptible isolates in the test with Streptococcus pneumoniae [2] is 18.3%. In the test on Streptococcus pneumoniae [3], this molecule gave an MIC50 of 32 µg/mL (≈ 72 µM) and an MIC90 of 64 µg/mL (≈ 144 µM).

Consider `CC[C@H]1OC(=O)[C@H](C)[C@@H](O[C@H]2C[C@@](C)(OC)[C@@H](O)[C@H](C)O2)[C@H](C)[C@@H](O[C@@H]2O[C@H](C)C[C@H](N(C)C)[C@H]2O)[C@](C)(OC)C[C@@H](C)C(=O)[C@H](C)[C@@H](O)[C@]1(C)O` [CLARITHROMYCIN], for which the Activity in the test on Streptococcus pneumoniae [1] is 72.8%. Further, in the test with Streptococcus pneumoniae [2], the Percent susceptible isolates amounted to 23.4%. For the same molecule, in the test on Streptococcus pneumoniae [3], the MIC50 amounted to 64 µg/mL (≈ 85.6 µM) and the MIC90 is not below 128 µg/mL.

The record behind these values is ChEMBL document CHEMBL1157371, “Prevalence, characteristics, and molecular epidemiology of macrolide and fluoroquinolone resistance in clinical isolates of Streptococcus pneumoniae at five tertiary-care hospitals in Korea” (2007).
